Measured values: article PMC9607578, “Chemopreventive Effect on Human Colon Adenocarcinoma Cells of Styrylquinolines: Synthesis, Cytotoxicity, Proapoptotic Effect and Molecular Docking Analysis” (Molecules, 2022)
Read-outs that look alike come from different tables or passages of the source.

Experiments:
HaCaT cells = experiment: Cytotoxic activity, sulforhodamine B (SRB) staining; format: cell-based; settings: Homo sapiens, mean ± SE, read-out: HaCaT IC50
Procedure: (§1) For the biological assays, the human colon adenocarcinoma cell line SW480 and its metastatic derivative SW620 were used. Additionally, the nonmalignant cell line HaCaT was used to find the selectivity index of the compounds. All cell lines were obtained by the Colombian Plant Chemistry Group of the Faculty of Exact and Natural Sciences of the University of Antioquia (Medellín, Colombia) from the European Collection of Authenticated Cell Cultures (ECACC, Salisbury, UK). Cells were cultured in a DMEM medium with 4500 mg/L of glucose and L-glutamine (Sigma-Aldrich, Burlington, MA, USA), supplemented with 10% heat-inactivated (56 °C) horse serum (Gibco, Waltham, MA, USA), 1% penicillin/streptomycin (Sigma-Aldrich, Burlington, MA, USA), and 1% non-essential amino acids (Sigma-Aldrich, Burlington, MA, USA). For all experiments, horse serum was reduced to 3%, and the medium was supplemented with […] of transferrin, 5 ng/mL of selenium, and […] of insulin (ITS; Sigma-Aldrich, Burlington, MA, USA). All cell lines were incubated at 37 °C in a 5% CO2 atmosphere. Additionally, cell cultures were constantly monitored with PCR (Sigma-Aldrich, Burlington, MA, USA) for Mycoplasma spp. to control contamination with this agent.
(§2) To evaluate the effect of styrylquinolines on the viability of the SW480, SW620, and HaCaT cell lines, sulforhodamine B (SRB) staining was used. SRB is a colorimetric assay that indirectly estimates the number of living cells based on the ability of SRB to bind to protein components of adherent cells. Briefly, the malignant cell lines were seeded at a final density of 2.0 × 10^4 cells/well, and the nonmalignant cell line was seeded at a final density of 1.5 × 10^4 cells/well in 96-well tissue culture plates. All cell lines were incubated at 37 °C in a 5% CO2 atmosphere for 24 h to enable cell adherence, and they were then treated for 24 and 48 h with increasing concentrations (0.01–160 µM) of the styrylquinolines or their respective precursors (8-hydroxyquinoline and resveratrol), as well as 1% DMSO (negative control) and 5-FU (standard drug). After treatment, cells were fixed with trichloroacetic acid (50% v/v; PanReac AppliChem, Barcelona, Spain) for a period of one hour at 4 °C. After this, the cells were incubated for 30 min at room temperature with 0.4% (w/v) SRB (Sigma-Aldrich, Burlington, MA, USA). To remove unbound SRB, the cells were washed with 1% acetic acid, and the plates were allowed to dry at room temperature. Protein-bound SRB was solubilized with 10 mM Tris-base (Amresco, Cleveland, OH, USA) for 30 min at room temperature under constant agitation, and absorbance was measured at 490 nm in a microplate reader (Bio-Rad iMark^TM, Hercules, CA, USA). Finally, the concentration of the compound that inhibits 50% of cell growth (IC50) and the selectivity index (SI) were determined.

SW620 cells [1] = experiment: as above; format: cell-based, human; settings: for IC50: Homo sapiens, SW-620, mean ± SE, read-out: SW620 IC50
Procedure: as §1, §2

SW480 cells [2] = experiment: as above; format: cell-based, human; settings: for IC50: Homo sapiens, SW480, mean ± SE, read-out: SW480 IC50
Procedure: as §1, §2

SW620 cells [3] = experiment: Intracellular ROS production, 2',7'-DCFDA probe; format: cell-based, human; settings: SW620, 24 h, treated at IC50, mean ± SE
Procedure: (§3) In order to evaluate the effect of the chosen styrylquinolines on the production of ROS in malignant cells, the 2′,7′-dichlorofluorescein diacetate (2′,7′-DCFDA) probe (Calbiochem, San Diego, CA, USA) was used as described by Kim et al.. Briefly, malignant cells were seeded at a final density of 2.5 × 10^5 cells/well in 6-well tissue culture plates for 24 h at 37 °C in a 5% CO2 atmosphere. […] After treatment, 2′,7′-DCFDA was added to a final concentration of 10 µM and incubated at 37 °C for 30 min. Finally, representative images of each well were taken using a fluorescence microscope (Axio Vert. A1; ZEISS, Jena, Germany) and Zen blue 3.4 software. The cell lysate was obtained from each well, and relative fluorescence units (RFU) were measured at excitation/emission wavelength (Ex/Em) = 485/525 nm using the Varioskan Lux microplate reader (Thermo Fisher Scientific, Waltham, MA, USA). The total protein concentration was quantified with the BCA method using the Pierce^TM BCA kit (Thermo Fisher Scientific, Waltham, MA, USA) to normalize the UFR.

SW480 cells [4] = experiment: Intracellular ROS production, 2',7'-DCFDA probe; format: cell-based, human; settings: SW480, 48 h, treated at IC50, mean ± SE
Procedure: as §3

SW620 cells [5] = experiment: Antiproliferative activity, SRB staining, 0-8 days; format: cell-based, human
Procedure: (§4) The antiproliferative activity of styrylquinolines with higher selective cytotoxicity toward malignant cells was also tested with SRB staining. Briefly, cells were seeded to a final density of 2.5 × 10^3 cells/well in 96-well tissue culture plates and incubated under the same conditions described for cytotoxic activity. After 24 h, the cells were treated with increasing concentrations (5–80 µM) of the selected hybrids or with 1% DMSO (negative control) for 0, 2, 4, 6, and 8 days. Culture media were replaced every 48 h to guarantee the basic nutrients required for cell growth and viability, maintaining the concentrations of each of the selected hybrids. After each incubation time, cells were fixed and stained, and the absorbance was measured as described above.

SW480 cells [6] = experiment: Antiproliferative activity, SRB staining, 0-8 days; format: cell-based, human
Procedure: as §4

What does the source list for `Oc1ccc(/C=C/c2ccc3cccc(O)c3n2)cc1O` [Compound 3d]?
IC50 (HaCaT cells; 24 h treatment): 164 ± 14.1 µM; IC50 (HaCaT cells; 48 h treatment): 78.9 ± 2.3 µM; SI (IC50 HaCaT / IC50 SW620) (SW620 cells [1]; 24 h treatment): 3.0; SI (IC50 HaCaT / IC50 SW620) (SW620 cells [1]; 48 h treatment): 12.3; IC50 (SW620 cells [1]; 24 h treatment): 54.6 ± 7.5 µM; IC50 (SW620 cells [1]; 48 h treatment): 6.4 ± 1.1 µM; SI (IC50 HaCaT / IC50 SW480) (SW480 cells [2]; 24 h treatment): 1.0; SI (IC50 HaCaT / IC50 SW480) (SW480 cells [2]; 48 h treatment): 1.9; IC50 (SW480 cells [2]; 24 h treatment): 160 ± 16.6 µM; IC50 (SW480 cells [2]; 48 h treatment): 42.5 ± 5.2 µM; ROS levels (SW620 cells [3]): 1.8 ± 0.1 RFU; ROS levels (SW480 cells [4]): 3.3 ± 0.2 RFU; Concentration required to significantly decrease cell viability percentage from day 2 post-treatment (SW620 cells [5]; SW620, day 2): 20 µM; Concentration from which cell viability percentage is decreased to 0% / high percentage of reduction (SW620 cells [5]; SW620, treatment up to 8 days): 40 µM; Concentration required to significantly decrease cell viability percentage from day 2 post-treatment (SW480 cells [6]; SW480, day 2): 40 µM; Concentration from which cell viability percentage is decreased to 0% / high percentage of reduction (SW480 cells [6]; SW480, treatment up to 8 days): 40 µM
